{
  "source": "patent US6709679B2",
  "about": "“Antineoplastic conjugates of transferin, albumin and polyethylene glycol” (priority 1996, dated 2004)",
  "system": "mammary carcinoma MCF-7",
  "assay": "xeno-transplantable naked-mouse model, mammary carcinoma MCF-7 s.c.",
  "assay_type": "in vivo, mice (Ncr:nu/nu female)",
  "protocol": "The dose refers to the amount of doxorubicin available. […] In the case of the highest dose employed in the experiment (12 mg/kg), there appears a very high lethalness (5 of 7 and 7 of 7 animals, respectively) in the therapy with doxorubicin.",
  "data": [
    {"smiles": "COc1cccc2c1C(=O)c1c(O)c3c(c(O)c1C2=O)C[C@@](O)(C(=O)CO)C[C@@H]3O[C@H]1C[C@H](N)[C@H](O)[C@H](C)O1", "note": "[doxorubicin]", "values": [
      {"measurement": "optimum TIC (%)", "setting": "dose 4 mg/kg/inj. i.v. day 16 and 23", "value": 61, "unit": "%"},
      {"measurement": "optimum TIC (%)", "setting": "dose 8 mg/kg/inj. i.v. day 16 and 23", "value": 39, "unit": "%"},
      {"measurement": "mortality (d)", "setting": "dose 8 mg/kg/inj. i.v. day 16 and 23, number of deaths (day), 8 mice", "value": "1 (26)"},
      {"measurement": "mortality (d)", "setting": "dose 12 mg/kg/inj. i.v. day 16 and 23, number of deaths (days), 7 mice", "value": "7 (25-33)"}
    ]}
  ]
}
